Experimental data published in patent US6849716B1, “Methods for designing inhibitors of serine/threonine kinases and tyrosine kinases” (Vertex Pharmaceuticals Incorporated, priority 1998, dated 2005).

What was measured:
ERK2 (wild-type) = ERK2 (wild-type) (Homo sapiens, UniProt P28482); assay: Coupled spectrophotometric kinase assay, ERK2 (wild-type); type: biochemical
ERK2 (Q105A) = ERK2 (Q105A) (Homo sapiens, UniProt P28482, Q105A); assay: Coupled spectrophotometric kinase assay, ERK2 (Q105A); type: biochemical
ERK2 (Q105T) = ERK2 (Q105T) (Homo sapiens, UniProt P28482, Q105T); assay: Coupled spectrophotometric kinase assay, ERK2 (Q105T); type: biochemical
p38 = p38 (Homo sapiens, UniProt Q16539); assay: Coupled spectrophotometric kinase assay, p38; type: biochemical; conditions: read-out: KM for ATP
JNK3 (M146A) = JNK3 (M146A) (Homo sapiens, UniProt P53779, M146A); assay: Coupled spectrophotometric kinase assay, JNK3 (M146A)
JNK3 (wild-type) = JNK3 (wild-type) (Homo sapiens, UniProt P53779); assay: Coupled spectrophotometric kinase assay, JNK3 (wild-type)
JNK3 (M146A/D150G) = JNK3 (M146A/D150G) (Homo sapiens, UniProt P53779, D150G/M146A); assay: Coupled spectrophotometric kinase assay, JNK3 (M146A/D150G)
[1] = 100 μM ATP, 200 μM EGF receptor peptide, read-out: Inhibition constants, Ki

Sequence of JNK3 (M146A) (P53779 40-402 M146A): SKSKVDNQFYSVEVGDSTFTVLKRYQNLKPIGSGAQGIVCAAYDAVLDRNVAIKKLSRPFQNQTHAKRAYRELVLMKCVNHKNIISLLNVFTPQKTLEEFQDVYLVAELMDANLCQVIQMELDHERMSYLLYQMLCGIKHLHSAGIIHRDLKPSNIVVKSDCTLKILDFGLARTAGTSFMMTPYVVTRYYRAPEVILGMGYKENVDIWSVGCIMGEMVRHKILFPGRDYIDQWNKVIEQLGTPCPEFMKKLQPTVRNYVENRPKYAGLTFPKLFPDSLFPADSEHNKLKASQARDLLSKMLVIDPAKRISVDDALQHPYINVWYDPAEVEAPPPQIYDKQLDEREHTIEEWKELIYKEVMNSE
Sequence of JNK3 (wild-type) (P53779 40-402): as the sequence (P53779 40-402 M146A) above, with A107M counted along it
Sequence of JNK3 (M146A/D150G) (P53779 40-402 M146A/D150G): as the sequence (P53779 40-402 M146A) above, with D111G counted along it
Sequence of p38 (Q16539 whole entry): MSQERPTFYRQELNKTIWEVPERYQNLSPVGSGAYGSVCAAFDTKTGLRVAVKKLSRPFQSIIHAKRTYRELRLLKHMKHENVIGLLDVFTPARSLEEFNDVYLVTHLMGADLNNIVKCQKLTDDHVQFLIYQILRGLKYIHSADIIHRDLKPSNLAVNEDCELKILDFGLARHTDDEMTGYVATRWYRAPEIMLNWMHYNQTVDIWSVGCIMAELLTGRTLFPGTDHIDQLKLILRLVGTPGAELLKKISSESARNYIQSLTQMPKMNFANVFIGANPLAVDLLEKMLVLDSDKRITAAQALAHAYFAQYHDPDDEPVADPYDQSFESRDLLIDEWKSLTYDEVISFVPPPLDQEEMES

Row | Km (ERK2 (wild-type); read-out: KM for ATP) [µM] | Km (ERK2 (Q105A); read-out: KM for ATP) [µM] | Km (ERK2 (Q105T); read-out: KM for ATP) [µM] | Km (p38) [µM] | Km (JNK3 (M146A); read-out: KM for ATP, JNK3 (M146A)) [µM] | Km (JNK3 (wild-type); read-out: KM for ATP, JNK3 (wild-type)) [µM] | Km (JNK3 (M146A/D150G); read-out: KM for ATP, JNK3 (M146A/D150G)) [µM] | Compound | Ki (ERK2 (wild-type); [1]) [nM] | Ki (ERK2 (Q105A); [1]) [nM] | Ki (ERK2 (Q105T); [1]) [nM] | increase in sensitivity versus wild-type JNK3 (JNK3 (M146A); JNK3 M146A mutant) | sensitivity of wild-type JNK3 (in words) (JNK3 (wild-type); wild-type JNK3) | sensitivity of the JNK3 double mutant (in words) (JNK3 (M146A/D150G); JNK3 (M146A/D150G) compared with wild-type and single mutant)
1 | 76 ± 14 | 51 ± 6 | 33 ± 4 | 260 ± 30 | 75 | 15 | 311 | Nc1ncnc2c1ncn2[C@@H]1O[C@H](COP(=O)(O)OP(=O)(O)OP(=O)(O)O)[C@@H](O)[C@H]1O [ATP] |  |  |  |  |  | 
2 |  |  |  |  |  |  |  | Oc1ccc(-c2nc(-c3ccc(F)cc3)c(-c3ccncc3)[nH]2)cc1 [SB202190, reference compound] | > 20000 | 0.81 ± 0.19 | 6.8 ± 0.6 | ~4,000 fold | moderately sensitive | considerably more sensitive than wild-type, but significantly less than observed for the single mutant
